{"source": "ChEMBL document CHEMBL1201861", "about": "“Genomics of Drug Sensitity in Cancer screening data, Wellcome Trust Sanger Institute”", "test_in_all_cases": "cells", "settings_in_all_cases": "Homo sapiens", "key": {"COLO-829": {"system": "COLO-829", "type": "functional, cell-based", "description": "SANGER: Inhibition of human COLO-829 cell growth in a cell viability assay."}, "D-263MG": {"system": "D-263MG", "type": "functional, cell-based", "description": "SANGER: Inhibition of human D-263MG cell growth in a cell viability assay."}, "DJM-1": {"system": "DJM-1", "type": "functional, cell-based", "description": "SANGER: Inhibition of human DJM-1 cell growth in a cell viability assay."}, "EKVX": {"system": "EKVX", "type": "functional, cell-based", "description": "SANGER: Inhibition of human EKVX cell growth in a cell viability assay."}, "ES7": {"system": "ES7", "type": "functional, cell-based", "description": "SANGER: Inhibition of human ES7 cell growth in a cell viability assay."}, "EW-18": {"system": "EW-18", "type": "functional, cell-based", "description": "SANGER: Inhibition of human EW-18 cell growth in a cell viability assay."}, "GCIY": {"system": "GCIY", "type": "functional, cell-based", "description": "SANGER: Inhibition of human GCIY cell growth in a cell viability assay."}, "GOTO": {"system": "GOTO", "type": "functional, cell-based", "description": "SANGER: Inhibition of human GOTO cell growth in a cell viability assay."}, "HAL-01": {"system": "HAL-01", "type": "functional, cell-based", "description": "SANGER: Inhibition of human HAL-01 cell growth in a cell viability assay."}, "HCE-4": {"system": "HCE-4", "type": "functional, cell-based", "description": "SANGER: Inhibition of human HCE-4 cell growth in a cell viability assay."}, "HT": {"system": "HT", "type": "functional, cell-based", "description": "SANGER: Inhibition of human HT cell growth in a cell viability assay."}, "IST-MEL1": {"system": "IST-MEL1", "type": "functional, cell-based", "description": "SANGER: Inhibition of human IST-MEL1 cell growth in a cell viability assay."}, "IST-SL1": {"system": "IST-SL1", "type": "functional, cell-based", "description": "SANGER: Inhibition of human IST-SL1 cell growth in a cell viability assay."}, "JVM-3": {"system": "JVM-3", "type": "functional, cell-based", "description": "SANGER: Inhibition of human JVM-3 cell growth in a cell viability assay."}, "K562": {"system": "K562", "type": "functional, cell-based", "description": "SANGER: Inhibition of human K-562 cell growth in a cell viability assay."}, "KG-1": {"system": "KG-1", "type": "functional, cell-based", "description": "SANGER: Inhibition of human KG-1 cell growth in a cell viability assay."}, "KLE": {"system": "KLE", "type": "functional, cell-based", "description": "SANGER: Inhibition of human KLE cell growth in a cell viability assay."}, "KM-H2": {"system": "KM-H2", "type": "functional, cell-based", "description": "SANGER: Inhibition of human KM-H2 cell growth in a cell viability assay."}, "KP-N-YS": {"system": "KP-N-YS", "type": "functional, cell-based", "description": "SANGER: Inhibition of human KP-N-YS cell growth in a cell viability assay."}, "KS-1": {"system": "KS-1", "type": "functional, cell-based", "description": "SANGER: Inhibition of human KS-1 cell growth in a cell viability assay."}, "KU812 cell line": {"system": "KU812 cell line", "type": "functional, cell-based", "description": "SANGER: Inhibition of human KU812 cell growth in a cell viability assay."}, "LB771-HNC": {"system": "LB771-HNC", "type": "functional, cell-based", "description": "SANGER: Inhibition of human LB771-HNC cell growth in a cell viability assay."}, "LB831-BLC": {"system": "LB831-BLC", "type": "functional, cell-based", "description": "SANGER: Inhibition of human LB831-BLC cell growth in a cell viability assay."}, "LS-411N": {"system": "LS-411N", "type": "functional, cell-based"}, "LXF-289 cell line": {"system": "LXF-289 cell line", "type": "functional, cell-based", "description": "SANGER: Inhibition of human LXF-289 cell growth in a cell viability assay."}, "MHH-NB-11": {"system": "MHH-NB-11", "type": "functional, cell-based", "description": "SANGER: Inhibition of human MHH-NB-11 cell growth in a cell viability assay."}, "MMAC-SF": {"system": "MMAC-SF", "type": "functional, cell-based", "description": "SANGER: Inhibition of human MMAC-SF cell growth in a cell viability assay."}, "MOLT-16": {"system": "MOLT-16", "type": "functional, cell-based", "description": "SANGER: Inhibition of human MOLT-16 cell growth in a cell viability assay."}, "MS-1": {"system": "MS-1", "type": "functional, cell-based", "description": "SANGER: Inhibition of human MS-1 cell growth in a cell viability assay."}, "MZ2-MEL": {"system": "MZ2-MEL", "type": "functional, cell-based", "description": "SANGER: Inhibition of human MZ2-MEL cell growth in a cell viability assay."}, "NB6": {"system": "NB6", "type": "functional, cell-based", "description": "SANGER: Inhibition of human NB6 cell growth in a cell viability assay."}, "NB69": {"system": "NB69", "type": "functional, cell-based", "description": "SANGER: Inhibition of human NB69 cell growth in a cell viability assay."}, "NCI-H1092": {"system": "NCI-H1092", "type": "functional, cell-based", "description": "SANGER: Inhibition of human NCI-H1092 cell growth in a cell viability assay."}, "NCI-H1155": {"system": "NCI-H1155", "type": "functional, cell-based", "description": "SANGER: Inhibition of human NCI-H1155 cell growth in a cell viability assay."}, "NCI-H1838": {"system": "NCI-H1838", "type": "functional, cell-based", "description": "SANGER: Inhibition of human NCI-H1838 cell growth in a cell viability assay."}, "NCI-H209": {"system": "NCI-H209", "type": "functional, cell-based", "description": "SANGER: Inhibition of human NCI-H209 cell growth in a cell viability assay."}, "NCI-H2126": {"system": "NCI-H2126", "type": "functional, cell-based", "description": "SANGER: Inhibition of human NCI-H2126 cell growth in a cell viability assay."}, "NCI-H23": {"system": "NCI-H23", "type": "functional, cell-based", "description": "SANGER: Inhibition of human NCI-H23 cell growth in a cell viability assay."}, "NCI-H510A": {"system": "NCI-H510A", "type": "functional, cell-based", "description": "SANGER: Inhibition of human NCI-H510A cell growth in a cell viability assay."}, "NCI-H526": {"system": "NCI-H526", "type": "functional, cell-based", "description": "SANGER: Inhibition of human NCI-H526 cell growth in a cell viability assay."}, "NH-12": {"system": "NH-12", "type": "functional, cell-based", "description": "SANGER: Inhibition of human NH-12 cell growth in a cell viability assay."}, "NKM-1": {"system": "NKM-1", "type": "functional, cell-based", "description": "SANGER: Inhibition of human NKM-1 cell growth in a cell viability assay."}, "NOS-1": {"system": "NOS-1", "type": "functional, cell-based", "description": "SANGER: Inhibition of human NOS-1 cell growth in a cell viability assay."}, "P30-OHK": {"system": "P30-OHK", "type": "functional, cell-based", "description": "SANGER: Inhibition of human P30-OHK cell growth in a cell viability assay."}, "PSN1": {"system": "PSN1", "type": "functional, cell-based", "description": "SANGER: Inhibition of human PSN1 cell growth in a cell viability assay."}, "RCC10RGB": {"system": "RCC10RGB", "type": "functional, cell-based", "description": "SANGER: Inhibition of human RCC10RGB cell growth in a cell viability assay."}, "RPMI-8226": {"system": "RPMI-8226", "type": "functional, cell-based", "description": "SANGER: Inhibition of human RPMI-8226 cell growth in a cell viability assay."}, "Ramos-2G6-4C10": {"system": "Ramos-2G6-4C10", "type": "functional, cell-based", "description": "SANGER: Inhibition of human Ramos-2G6-4C10 cell growth in a cell viability assay."}, "SCC-15": {"system": "SCC-15", "type": "functional, cell-based", "description": "SANGER: Inhibition of human SCC-15 cell growth in a cell viability assay."}, "SCH": {"system": "SCH", "type": "functional, cell-based", "description": "SANGER: Inhibition of human SCH cell growth in a cell viability assay."}, "SH-4": {"system": "SH-4", "type": "functional, cell-based", "description": "SANGER: Inhibition of human SH-4 cell growth in a cell viability assay."}, "SK-MEL-2": {"system": "SK-MEL-2", "type": "functional, cell-based", "description": "SANGER: Inhibition of human SK-MEL-2 cell growth in a cell viability assay."}, "SK-NEP-1": {"system": "SK-NEP-1", "type": "functional, cell-based", "description": "SANGER: Inhibition of human SK-NEP-1 cell growth in a cell viability assay."}, "SW684": {"system": "SW684", "type": "functional, cell-based", "description": "SANGER: Inhibition of human SW684 cell growth in a cell viability assay."}, "SW872": {"system": "SW872", "type": "functional, cell-based", "description": "SANGER: Inhibition of human SW872 cell growth in a cell viability assay."}, "SW982": {"system": "SW982", "type": "functional, cell-based", "description": "SANGER: Inhibition of human SW982 cell growth in a cell viability assay."}, "TE-1": {"system": "TE-1", "type": "functional, cell-based", "description": "SANGER: Inhibition of human TE-1 cell growth in a cell viability assay."}, "697": {"system": "697", "type": "functional, cell-based", "description": "SANGER: Inhibition of human 697 cell growth in a cell viability assay."}, "8-MG-BA": {"system": "8-MG-BA", "type": "functional, cell-based", "description": "SANGER: Inhibition of human 8-MG-BA cell growth in a cell viability assay."}, "ACN": {"system": "ACN", "type": "functional, cell-based", "description": "SANGER: Inhibition of human ACN cell growth in a cell viability assay."}, "BB65-RCC": {"system": "BB65-RCC", "type": "functional, cell-based", "description": "SANGER: Inhibition of human BB65-RCC cell growth in a cell viability assay."}, "BE-13": {"system": "BE-13", "type": "functional, cell-based", "description": "SANGER: Inhibition of human BE-13 cell growth in a cell viability assay."}, "BV-173": {"system": "BV-173", "type": "functional, cell-based", "description": "SANGER: Inhibition of human BV-173 cell growth in a cell viability assay."}, "TE-5": {"system": "TE-5", "type": "functional, cell-based", "description": "SANGER: Inhibition of human TE-5 cell growth in a cell viability assay."}, "U-87 MG": {"system": "U-87 MG", "type": "functional, cell-based, U-87MG ATCC", "description": "SANGER: Inhibition of human U-87-MG cell growth in a cell viability assay."}, "COLO-684": {"system": "COLO-684", "type": "functional, cell-based", "description": "SANGER: Inhibition of human COLO-684 cell growth in a cell viability assay."}}, "data": [{"smiles": "Cc1n[nH]c2ccc(-c3cncc(OC[C@@H](N)Cc4c[nH]c5ccccc45)c3)cc12", "note": "[A-443654]", "values": [{"measurement": "IC50", "setting": "COLO-829", "value": "> 1020", "unit": "nM"}, {"measurement": "IC50", "setting": "D-263MG", "value": "> 1020", "unit": "nM"}, {"measurement": "IC50", "setting": "DJM-1", "value": 331, "unit": "nM"}, {"measurement": "IC50", "setting": "EKVX", "value": "> 1020", "unit": "nM"}, {"measurement": "IC50", "setting": "ES7", "value": "> 1020", "unit": "nM"}, {"measurement": "IC50", "setting": "EW-18", "value": "> 1020", "unit": "nM"}, {"measurement": "IC50", "setting": "GCIY", "value": 261, "unit": "nM"}, {"measurement": "IC50", "setting": "GOTO", "value": 366, "unit": "nM"}, {"measurement": "IC50", "setting": "HAL-01", "value": "> 1020", "unit": "nM"}, {"measurement": "IC50", "setting": "HCE-4", "value": 104, "unit": "nM"}, {"measurement": "IC50", "setting": "HT", "value": 373, "unit": "nM"}, {"measurement": "IC50", "setting": "IST-MEL1", "value": 447, "unit": "nM"}, {"measurement": "IC50", "setting": "IST-SL1", "value": 434, "unit": "nM"}, {"measurement": "IC50", "setting": "JVM-3", "value": "> 1020", "unit": "nM"}, {"measurement": "IC50", "setting": "K562", "value": 385, "unit": "nM"}, {"measurement": "IC50", "setting": "KG-1", "value": "> 1020", "unit": "nM"}, {"measurement": "IC50", "setting": "KLE", "value": 226, "unit": "nM"}, {"measurement": "IC50", "setting": "KM-H2", "value": "> 1020", "unit": "nM"}, {"measurement": "IC50", "setting": "KP-N-YS", "value": "> 1020", "unit": "nM"}, {"measurement": "IC50", "setting": "KS-1", "value": 53.5, "unit": "nM"}, {"measurement": "IC50", "setting": "KU812 cell line", "value": 96.5, "unit": "nM"}, {"measurement": "IC50", "setting": "LB771-HNC", "value": 222, "unit": "nM"}, {"measurement": "IC50", "setting": "LB831-BLC", "value": 194, "unit": "nM"}, {"measurement": "IC50", "setting": "LS-411N", "value": 87.5, "unit": "nM"}, {"measurement": "IC50", "setting": "LXF-289 cell line", "value": 179, "unit": "nM"}, {"measurement": "IC50", "setting": "MHH-NB-11", "value": "> 1020", "unit": "nM"}, {"measurement": "IC50", "setting": "MMAC-SF", "value": "> 1020", "unit": "nM"}, {"measurement": "IC50", "setting": "MOLT-16", "value": 83.7, "unit": "nM"}, {"measurement": "IC50", "setting": "MS-1", "value": "> 1020", "unit": "nM"}, {"measurement": "IC50", "setting": "MZ2-MEL", "value": "> 1020", "unit": "nM"}, {"measurement": "IC50", "setting": "NB6", "value": 480, "unit": "nM"}, {"measurement": "IC50", "setting": "NB69", "value": 227, "unit": "nM"}, {"measurement": "IC50", "setting": "NCI-H1092", "value": 938, "unit": "nM"}, {"measurement": "IC50", "setting": "NCI-H1155", "value": 564, "unit": "nM"}, {"measurement": "IC50", "setting": "NCI-H1838", "value": "> 1020", "unit": "nM"}, {"measurement": "IC50", "setting": "NCI-H209", "value": 246, "unit": "nM"}, {"measurement": "IC50", "setting": "NCI-H2126", "value": 309, "unit": "nM"}, {"measurement": "IC50", "setting": "NCI-H23", "value": "> 1020", "unit": "nM"}, {"measurement": "IC50", "setting": "NCI-H510A", "value": 229, "unit": "nM"}, {"measurement": "IC50", "setting": "NCI-H526", "value": "> 1020", "unit": "nM"}, {"measurement": "IC50", "setting": "NH-12", "value": "> 1020", "unit": "nM"}, {"measurement": "IC50", "setting": "NKM-1", "value": "> 1020", "unit": "nM"}, {"measurement": "IC50", "setting": "NOS-1", "value": 93.8, "unit": "nM"}, {"measurement": "IC50", "setting": "P30-OHK", "value": "> 1020", "unit": "nM"}, {"measurement": "IC50", "setting": "PSN1", "value": 47.3, "unit": "nM"}, {"measurement": "IC50", "setting": "RCC10RGB", "value": "> 1020", "unit": "nM"}, {"measurement": "IC50", "setting": "RPMI-8226", "value": 670, "unit": "nM"}, {"measurement": "IC50", "setting": "Ramos-2G6-4C10", "value": 170, "unit": "nM"}, {"measurement": "IC50", "setting": "SCC-15", "value": "> 1020", "unit": "nM"}, {"measurement": "IC50", "setting": "SCH", "value": "> 1020", "unit": "nM"}, {"measurement": "IC50", "setting": "SH-4", "value": 185, "unit": "nM"}, {"measurement": "IC50", "setting": "SK-MEL-2", "value": 833, "unit": "nM"}, {"measurement": "IC50", "setting": "SK-NEP-1", "value": 519, "unit": "nM"}, {"measurement": "IC50", "setting": "SW684", "value": "> 1020", "unit": "nM"}, {"measurement": "IC50", "setting": "SW872", "value": 255, "unit": "nM"}, {"measurement": "IC50", "setting": "SW982", "value": 166, "unit": "nM"}, {"measurement": "IC50", "setting": "TE-1", "value": 111, "unit": "nM"}, {"measurement": "IC50", "setting": "697", "value": 32.8, "unit": "nM"}, {"measurement": "IC50", "setting": "8-MG-BA", "value": 163, "unit": "nM"}, {"measurement": "IC50", "setting": "ACN", "value": 909, "unit": "nM"}, {"measurement": "IC50", "setting": "BB65-RCC", "value": 597, "unit": "nM"}, {"measurement": "IC50", "setting": "BE-13", "value": 502, "unit": "nM"}, {"measurement": "IC50", "setting": "BV-173", "value": 269, "unit": "nM"}, {"measurement": "IC50", "setting": "TE-5", "value": 169, "unit": "nM"}, {"measurement": "IC50", "setting": "U-87 MG", "value": "> 1020", "unit": "nM"}, {"measurement": "IC50", "setting": "COLO-684", "value": 79.5, "unit": "nM"}]}]}
